The source of these data is publication PMC11775380, “Discovery of Novel Nav1.7-Selective Inhibitors with the 1H-Indole-3-Propionamide Scaffold for Effective Pain Relief” (Research, 2025).

In data set [1] the test system is CFA inflammatory pain model of mice. Nature of the data set: CFA-induced inflammatory (chronic) pain model. Particulars: for Paw withdrawal threshold (PWT) at 1.5 h: 1.5 h post drug, 24 h after CFA. It is filed as in vivo, ICR mice. The method, then:
The chronic pain model of mice was often used to simulate persistent pain in humans. In this model, chronic persistent pain was induced by injecting complete Freund’s adjuvant (CFA) into the right hind foot of mice. […] The chronic analgesic potential of WN2-R was evaluated using both i.g. and i.m. methods (n = 4). When administered by i.g., the PWTs of the WN2-R group and the PF-05089771 group reached their peak at 1.5 and 1 h after administration, respectively, and subsequently declined to the same level as the saline group at 2.5 h (Fig. 6D). […] When administered i.m., both the WN2-R and PF-05089771 groups reached peak PWTs at 1.5 h, and declined to the saline group level at 3 h (Fig. 6K). […] The mechanical allodynia of ICR mice (2 male and 2 female) was assessed prior to model construction using von Frey fibers according to the up–down method. Mice with paw withdraw thresholds (PWTs) remarkably deviating from the mean value were excluded from further experiments. Subsequently, 15 μl of CFA was unilaterally injected into the intraplantar surface of the right hind paw of each mice. After 24 h, the PWTs of the mice were assessed. During the i.g. administration of drugs or saline, PWTs were measured 0, 0.5, 1, 1.5, 2, and 2.5 h post drugs/saline administration. Similarly, during i.m. administration, PWTs were measured at 0, 0.5, 1, 1.5, 2, 2.5, and 3 h post drugs/saline administration.

On the set-up of data set [2]: method as in PMID 28682065. The following applies: positive control drug; cited from earlier work.
Data set [3] relates to formalin-induced acute inflammatory pain model in mice. Nature of the data set: Formalin-induced inflammation pain model. It is filed as in vivo, ICR mice. The following applies: 30 min before formalin. The method, then:
The formalin-induced acute inflammatory pain model in mice, achieved through the plantar injection of formalin aqueous solution, is another widely used model for acute inflammatory pain. This model comprises 2 stages: an initial phase ([…]) where pain is triggered by formalin's direct stimulation of nociceptive receptors on sensory neurons, followed by a second phase (15 to 40 min) characterized by persistent inflammatory pain due to tissue damage. Similarly, both i.g. and i.m. methods were used to evaluate the effect of WN2-R in this model (n = 6) (Fig. 6B and I). […] These findings were consistent across repeated experiments.
To induce the pain response, 20 μl of formalin (5%, w/v) was injected subcutaneously into the right hind paw of ICR mice (3 male and 3 female). Prior to the formalin injection, mice were preadministered with WN2-R (5 mg/kg i.g., 1 mg/kg i.m.), PF05089771 (5 mg/kg i.g., 1 mg/kg i.m.), or saline 30 min beforehand. The duration of licking/biting the injected paw was recorded every 5 min, commencing immediately after the formalin injection and continuing for 40 min. Phase I and II in this assay corresponded to the nociceptive response observed between 0 and 5 min and between 10 and 40 min, respectively.

Data set [4] concerns acetic acid writhing pain model in mice. Nature of the data set: Acetic acid-induced writhing test. In kind it is in vivo, ICR mice. The following applies: 15 min before acetic acid, writhing counted 30 min. The text has this: Acute pain was a common type of pain with considerable value for drug development. Here, 2 acute inflammatory pain models were used to verify the acute analgesic effect of WN2-R. One such model, the acetic acid writhing pain model in mice, is a well-established acute visceral pain model. It simulates clinically relevant intestinal discomfort by stimulating the abdominal mucosa and intestine with acetic acid and has been extensively used to screen analgesic or anti-inflammatory drugs. Based on this model, we evaluated the acute analgesic effect of WN2-R using 2 drug delivery methods, i.g. and […] (n = 6). […] Furthermore, the analgesic effect of WN2-R at the same dose was similar to that of the positive control drug PF-05089771, with no significant difference between these two. […] Three male and 3 female ICR mice were used in the acetic acid-induced writhing test. Mice were preadministered with either WN2-R (5 mg/kg i.g., 1 mg/kg i.m.), PF05089771 (5 mg/kg i.g., 1 mg/kg i.m.), or saline 15 min before i.p. injection of 0.2 ml of acetic acid (0.8%, V/V). Each mouse was then placed in an individual open polyvinyl cage (30 cm × 40 cm × 30 cm). The number of writhing responses, characterized by a wave of abdominal muscle contraction followed by hind limb extension, was recorded for 30 min after acetic acid injection. These responses served as an indication of nociceptive intensity. The percentage of inhibition was calculated using the following equation: Inhibition% = (Writhing Numbervehicle – Writhing Numberdrug)/Writhing Numbervehicle × 100% [15, 47].
For orientation: In writhing tests, fewer writhes than in controls are read as antinociception.

In data set [5] the test system is SNI neuropathic pain model in mice. The experiment in a line: Spared nerve injury (SNI) neuropathic pain model. It is filed as in vivo, C57 mice. The source says: Peripheral nerve injury models were developed to investigate the mechanisms of neuropathic pain. One such model, the spared nerve injury (SNI) neuropathic pain model in mice, involved ligating and transecting the […] and tibial nerves within the […] nerve, while leaving the sural nerve untouched. […] To evaluate the neuroanalgesic potential of WN2-R in this model, both i.g. and i.m. routes were used to evaluate the neuroanalgesic effect of WN2-R in this model (n = 5). […] In contrast, PF-05089771 reached its peak at 1 h (PWTs = 1.08 g) but then rapidly lost its efficacy, resembling the saline control group after 1 h. Throughout the experiment, the PWTs of the WN2-R group remained consistently higher than that of the PF-05089771 group (Fig. 6F and G). […] Subsequently, the efficacy of both drugs gradually declined, converging with the saline group after 3 h. Throughout the entire dosing period, the PWTs of the WN2-R group were slightly higher than that of the PF-05089771 group (Fig. 6M and N). […] To elucidate the time course of pain hypersensitivity induced by SNI, the behavioral responses (mechanical testing with von Frey fibers) were measured before surgery (baseline value) in C57 mice (5 female). Then, the mice underwent SNI surgery, which involved ligation and axotomy of the common peroneal and tibial nerves, while sparing the sural nerve. Sham-operated mice served as controls, with their nerves remaining intact. To confirm the presence of pain hypersensitivity in the SNI group, behavioral testing was carried out 14 days after SNI in each animal. Post drugs/saline administration, PWTs were measured at 0, 0.5, 1, 1.5, 2, 2.5, and 3 h for the i.g. route, and at 0, 0.5, 1, 2, 3, and 4 h for the i.m. route.

The target in the next data set is T1, human Nav1.7 (hNav1.7) (Homo sapiens, UniProt Q15858).
T1 construct: expressed in transfected cells; host or cells: HEK293T
Nature of the data set: Whole-cell patch-clamp inhibition of Nav1.7 currents in transfected HEK293T cells. It is filed as cell-based. The following applies: for inhibition at 10 µM: HEK-293T, read-out: Inhibitory activity (10 μM); for IC50: −80 mV holding, step to V1/2 of inactivation for 8 s, HEK293T. The method, then:
Human embryonic kidney (HEK) 293T (ATCC CRL-3216) and ND7/23 cells (National Collection of Authenticated Cell Cultures SCSP-5026) were cultured under standard conditions (5% CO2, 37 °C) in Dulbecco’s modified Eagle’s medium (DMEM) containing 10% fetal bovine serum and 1% penicillin-streptomycin solution(all from Gibco, Thermo Fisher Scientific, Waltham, MA, USA). When the cells reached 70% to 90% confluence, human Nav1.2 (hNav1.2), human Nav1.3 (hNav1.3), human Nav1.4 (hNav1.4), human Nav1.5 (hNav1.5), and mouse Nav1.6 (mNav1.6) channel plasmids were cotransfected with enhanced green fluorescent protein (eGFP) into HEK293T cells. Additionally, plasmids expressing β1 and β2 subunits tagged with eGFP were cotransfected with the human Nav1.7 (hNav1.7) channel into HEK293T cells. Human Nav1.8 (hNav1.8) was transiently transfected into ND7/23 cells, along with eGFP, using Lipofectamine 2000 (Invitrogen), adhering strictly to the manufacturer’s protocol. For manual patch-clamp experiments, the cells were plated onto glass coverslips and used within 20 to 48 h of transfection.
Whole-cell patch-clamp recordings were conducted at 25 ± 2 °C, utilizing an EPC 10USB patch-clamp amplifier (HEKA Elektronik, Lambrecht, Germany). Pipettes, with access resistance between 2.0 and 3.0 MΩ, were pulled from borosilicate glass capillary tubes using a 2-step vertical microelectrode puller (PC-10, Narishige Group, Tokyo, Japan). Voltage-clamp recordings were obtained with PatchMaster software v2 × 73 (HEKA Elektronik) 5 min after establishing whole-cell configuration, sampled at 20 kHz, and filtered at 5 kHz. To minimize voltage errors, 80% series resistance compensation was applied. Pipettes were filled with 140 mM CsF, 10 mM NaCl, 1 mM EGTA, and 10 mM HEPES (pH=7.4, adjusted with CsOH). The external solution contained 140 mM NaCl, 2 mM CaCl2, 1 mM MgCl2, 5 mM KCl, 10 mM HEPES, and 10 mM glucose (pH=7.4, adjusted with NaOH). IC50 values were determined in HEK293T or ND7/23 cell lines by voltage clamping at −80 mV, followed by stepping to the V1/2 of inactivation for 8 s to facilitate compound binding.
(In general: Patch clamp records ionic current or voltage across a cell membrane.)

The mark [6] stands for this setting: 10 μM compound, inhibition rate of Nav1.7.

T1 sequence (Q15858 whole entry): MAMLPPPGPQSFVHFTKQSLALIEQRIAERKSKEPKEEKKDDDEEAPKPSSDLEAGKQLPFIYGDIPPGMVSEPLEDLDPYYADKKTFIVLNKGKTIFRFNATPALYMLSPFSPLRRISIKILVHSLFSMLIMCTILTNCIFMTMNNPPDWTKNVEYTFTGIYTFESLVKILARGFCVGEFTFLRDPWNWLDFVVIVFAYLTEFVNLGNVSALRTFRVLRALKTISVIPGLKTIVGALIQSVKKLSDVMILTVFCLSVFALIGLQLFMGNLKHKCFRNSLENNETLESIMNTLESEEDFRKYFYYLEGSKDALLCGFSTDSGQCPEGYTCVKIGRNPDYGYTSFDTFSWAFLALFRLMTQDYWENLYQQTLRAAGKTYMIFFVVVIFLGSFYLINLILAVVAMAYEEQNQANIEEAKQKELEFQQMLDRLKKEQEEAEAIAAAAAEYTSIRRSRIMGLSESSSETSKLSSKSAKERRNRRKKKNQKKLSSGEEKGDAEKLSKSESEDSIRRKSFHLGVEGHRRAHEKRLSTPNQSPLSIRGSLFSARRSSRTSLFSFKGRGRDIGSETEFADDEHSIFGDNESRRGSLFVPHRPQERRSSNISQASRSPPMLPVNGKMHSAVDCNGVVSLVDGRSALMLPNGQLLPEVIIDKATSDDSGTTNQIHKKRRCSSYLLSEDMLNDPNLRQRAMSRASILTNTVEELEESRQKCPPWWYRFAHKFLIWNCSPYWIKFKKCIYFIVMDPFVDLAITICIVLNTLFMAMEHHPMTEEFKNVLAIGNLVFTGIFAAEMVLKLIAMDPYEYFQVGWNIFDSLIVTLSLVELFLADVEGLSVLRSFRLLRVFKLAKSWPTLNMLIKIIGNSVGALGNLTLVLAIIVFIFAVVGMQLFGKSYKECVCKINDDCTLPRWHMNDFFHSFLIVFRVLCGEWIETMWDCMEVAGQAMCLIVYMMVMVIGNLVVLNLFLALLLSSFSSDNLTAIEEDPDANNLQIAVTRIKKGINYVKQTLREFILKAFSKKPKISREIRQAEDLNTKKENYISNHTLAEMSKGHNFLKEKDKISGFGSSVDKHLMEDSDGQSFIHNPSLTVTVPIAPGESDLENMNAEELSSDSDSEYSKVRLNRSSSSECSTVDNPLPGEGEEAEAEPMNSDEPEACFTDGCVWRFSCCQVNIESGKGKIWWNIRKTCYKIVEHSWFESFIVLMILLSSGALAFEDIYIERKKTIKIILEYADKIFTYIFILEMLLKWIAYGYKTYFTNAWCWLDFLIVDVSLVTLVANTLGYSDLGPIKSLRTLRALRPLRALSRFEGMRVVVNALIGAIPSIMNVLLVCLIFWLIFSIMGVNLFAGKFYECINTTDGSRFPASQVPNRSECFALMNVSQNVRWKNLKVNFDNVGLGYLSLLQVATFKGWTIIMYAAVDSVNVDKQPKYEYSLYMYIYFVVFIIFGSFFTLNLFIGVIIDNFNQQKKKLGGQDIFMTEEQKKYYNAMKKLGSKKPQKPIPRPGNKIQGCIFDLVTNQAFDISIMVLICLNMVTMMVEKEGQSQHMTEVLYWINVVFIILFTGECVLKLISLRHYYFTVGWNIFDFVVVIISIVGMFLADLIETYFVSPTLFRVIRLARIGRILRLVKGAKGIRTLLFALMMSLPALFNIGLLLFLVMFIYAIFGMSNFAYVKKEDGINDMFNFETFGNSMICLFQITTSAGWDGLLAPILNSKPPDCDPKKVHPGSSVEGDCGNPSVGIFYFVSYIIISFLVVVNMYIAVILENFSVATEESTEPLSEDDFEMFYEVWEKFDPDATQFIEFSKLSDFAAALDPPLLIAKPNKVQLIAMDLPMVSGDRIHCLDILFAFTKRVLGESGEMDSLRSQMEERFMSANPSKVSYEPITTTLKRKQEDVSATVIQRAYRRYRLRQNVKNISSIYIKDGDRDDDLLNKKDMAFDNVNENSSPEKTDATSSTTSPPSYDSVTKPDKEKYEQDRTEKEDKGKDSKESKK
T1 sequence (Q07699 19-218 partner): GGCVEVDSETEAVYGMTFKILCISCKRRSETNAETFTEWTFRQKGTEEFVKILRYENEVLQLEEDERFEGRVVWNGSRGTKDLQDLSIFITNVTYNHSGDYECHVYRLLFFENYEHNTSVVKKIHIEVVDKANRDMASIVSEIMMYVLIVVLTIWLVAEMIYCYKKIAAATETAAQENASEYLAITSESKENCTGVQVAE
T1 sequence (O60939 30-215 partner): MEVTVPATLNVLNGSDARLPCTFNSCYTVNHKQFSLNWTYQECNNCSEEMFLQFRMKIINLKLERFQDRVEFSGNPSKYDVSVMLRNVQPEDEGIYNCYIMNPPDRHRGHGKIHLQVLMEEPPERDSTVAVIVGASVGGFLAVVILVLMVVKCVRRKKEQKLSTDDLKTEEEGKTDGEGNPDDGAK

Turning to `Nc1[nH]ncc1-c1cc(Cl)ccc1Oc1cc(F)c(S(=O)(=O)Nc2cscn2)cc1Cl` [PF-05089771, 4-[2-(5-amino-1H-pyrazol-4-yl)-4-chlorophenoxy]-5-chloro-2-fluoro-N-1,3-thiazol-4-ylbenzenesulfonamide, reference compound], the figures for the “Time at which PWT declined to the saline group level” value in data set [1] (i.g.) and in data set [1] (i.m.) were 2.5 h and 3 h, respectively. The “Time of peak PWT after administration” value in data set [1] (i.g.) stood at 1 h; in data set [1] (i.m.), 1.5 h. Further, the “Paw withdrawal threshold (PWT) at 1.5 h” value in data set [1] (i.g.) amounted to 1.32 g; in data set [1] (i.m.), 1.83 g. Besides, in data set [2], the “F (bioavailability)” value is on record as 27%. The “Licking time in phase I vs saline” value in data set [3] (i.g., 5 mg/kg) is listed as “significantly reduced licking time”; in data set [3] (i.m., 1 mg/kg) it was “significantly reduced licking time”. Further, the “Licking time in phase II vs saline” value in data set [3] (i.g., 5 mg/kg) is listed as “decreased effectiveness”; in data set [3] (i.m., 1 mg/kg), “significantly reduced licking time”. Moreover, the “Analgesic rate (normalized number of writhing)” value in data set [4] (i.g., 5 mg/kg) was 53.5%; in data set [4] (i.p. (method: 1 mg/kg i.m.)), 51.9%. In addition, the “Time of peak efficacy” value in data set [5] (i.g.) and in data set [5] (i.m.) was 1 h throughout. Further, the “Paw withdrawal threshold (PWTs)” value in data set [5] (i.g., 1 h post drug application, 14 days after SNI) was 1.08 g. The “Time after which efficacy converged with the saline group” value in data set [5] (i.m.) is given as 3 h. Also, in data set [5] (i.m., 1 h post drug application, 14 days after SNI), the “Paw withdrawal threshold (PWTs) at peak efficacy” value worked out at 1.30 g.

On to `O=C(CC(c1ccc(C(F)(F)F)cc1)c1cn(Cc2ccc(F)cc2)c2ccccc12)NCCc1ccccn1` (stereo not drawn) [WN1, C1=CC=C2C(=C1)C(=CN2CC3=CC=C(C=C3)F)C(CC(=O)NCCC4=CC=CC=N4)C5=CC=C(C=C5)C(F)(F)F], for which the inhibition at 10 µM on human Nav1.7 (hNav1.7) (setting [6]) worked out at 73.2%. Also, the IC50 on human Nav1.7 (hNav1.7) stood at 3960 ± 140 nM.

With `Cc1ccc(Cn2cc([C@@H](CC(=O)NCCN(C)C)c3ccc(F)cc3)c3ccccc32)cc1` [WN2-S], the IC50 against human Nav1.7 (hNav1.7) amounted to 113 ± 36.9 nM.

As to `Cc1ccc(Cn2cc(C(CC(=O)NCCN(C)C)c3ccc(F)cc3)c3ccccc32)cc1` (stereo not drawn) [WN2], the inhibition at 10 µM on human Nav1.7 (hNav1.7) (setting [6]) came to 91.5%. Further, the IC50 against human Nav1.7 (hNav1.7) turned out to be 730 ± 120 nM.

Turning to “(C)C(CC(=O)NCCC1=CC=CC=N1)C2=CN(C3=CC=CC=C32)CC4=CC=CC=C4 [B37]”, the “Inhibitory activity (10 μM)” value on human Nav1.7 (hNav1.7) (setting [6]) is 19.13% ± 16.30%.

As usually defined, the IC50 is the midpoint of a concentration-inhibition curve. Higher therefore signals weaker potency in that assay.
